The supplement of paper PMC10307832

Key:
Experiment in all cases: relative viability (nuclei count vs DMSO), 5 days (fraction); higher = more cells survive
COR-L23 = tested on: COR-L23
How it was run: (§1)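 After 5 days of treatment, lung cancer cells in 1536-well plates were fixed and stained in a single step (final 0.05% Triton X-100, 1% formaldehyde, 1 ug/ml Hoechst) and their nuclei counted on 4× images. Treatment had been applied by pin tool the day after seeding as one drug alone or as a fixed anchor-drug dose with five library-drug doses (not always all listed) in √10 steps. Relative viability is the nuclei count of treated wells divided by that of vehicle wells, and values are medians of duplicate plates.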

A-427 = tested on: A-427
How it was run: as §1

SW 1573 = tested on: SW 1573
How it was run: as §1

PC-14 = tested on: PC-14
How it was run: as §1

NCI-H1793 = tested on: NCI-H1793
How it was run: as §1

HCC-44 = tested on: HCC-44
How it was run: as §1

NCI-H1563 = tested on: NCI-H1563
How it was run: as §1

NCI-H2347 = tested on: NCI-H2347
How it was run: as §1

H3255 = tested on: H3255
How it was run: as §1

PC-3 [JPC-3] = tested on: PC-3 [JPC-3]
How it was run: as §1

201T = tested on: 201T
How it was run: as §1

NCI-H727 = tested on: NCI-H727
How it was run: as §1

NCI-H650 = tested on: NCI-H650
How it was run: as §1

NCI-H838 = tested on: NCI-H838
How it was run: as §1

LK-2 = tested on: LK-2
How it was run: as §1

NCI-H1650 = tested on: NCI-H1650
How it was run: as §1

LCLC-103H = tested on: LCLC-103H
How it was run: as §1

LU99A = tested on: LU99A
How it was run: as §1

LCLC-97TM1 = tested on: LCLC-97TM1
How it was run: as §1

NCI-H23 = tested on: NCI-H23
How it was run: as §1

NCI-H1944 = tested on: NCI-H1944
How it was run: as §1

NCI-H460 = tested on: NCI-H460
How it was run: as §1

SW 900 = tested on: SW 900
How it was run: as §1

For CC1(C)CCC(c2ccc(Cl)cc2)=C(CN2CCN(c3ccc(C(=O)NS(=O)(=O)c4ccc(N[C@H](CCN5CCOCC5)CSc5ccccc5)c(S(=O)(=O)C(F)(F)F)c4)cc3)CC2)C1 [Navitoclax] + COc1cccc2cc(-c3nc([C@H]4CC[C@H](C(=O)O)CC4)n4ncnc(N)c34)[nH]c12 [OSI-027] (partner 0.5 µM), the relative viability (COR-L23; first compound 0.005 µM) was 0.839, the relative viability (COR-L23; first compound 0.01581 µM) was 0.814 and the relative viability (COR-L23; first compound 0.05 µM) was 0.877. It also gave a relative viability (COR-L23; first compound 0.1581 µM) of 0.785, a relative viability (COR-L23; first compound 0.5 µM) of 0.779 and a relative viability (A-427; first compound 0.005 µM) of 0.485. The relative viability (A-427; first compound 0.01581 µM) was 0.525, the relative viability (A-427; first compound 0.05 µM) was 0.444 and the relative viability (A-427; first compound 0.1581 µM) was 0.477. The relative viability (A-427; first compound 0.5 µM) was 0.392, the relative viability (SW 1573; first compound 0.005 µM) was 0.762 and the relative viability (SW 1573; first compound 0.01581 µM) was 0.782. The relative viability (SW 1573; first compound 0.05 µM) was 0.638, the relative viability (SW 1573; first compound 0.1581 µM) was 0.562 and the relative viability (SW 1573; first compound 0.5 µM) was 0.576. It also gave a relative viability (PC-14; first compound 0.005 µM) of 0.735, a relative viability (PC-14; first compound 0.01581 µM) of 1.12 and a relative viability (PC-14; first compound 0.05 µM) of 0.767. It also gave a relative viability (PC-14; first compound 0.1581 µM) of 0.842, a relative viability (PC-14; first compound 0.5 µM) of 0.748 and a relative viability (NCI-H1793; first compound 0.005 µM) of 0.267. The relative viability (NCI-H1793; first compound 0.01581 µM) was 0.414, the relative viability (NCI-H1793; first compound 0.1581 µM) was 0.273 and the relative viability (NCI-H1793; first compound 0.5 µM) was 0.261. It also gave a relative viability (HCC-44; first compound 0.05 µM) of 0.627, a relative viability (HCC-44; first compound 0.5 µM) of 0.404 and a relative viability (NCI-H1563; first compound 0.005 µM) of 0.737. For the same compound, the relative viability (NCI-H1563; first compound 0.01581 µM) was 0.809, the relative viability (NCI-H1563; first compound 0.05 µM) was 0.756 and the relative viability (NCI-H1563; first compound 0.1581 µM) was 0.824. It also gave a relative viability (NCI-H1563; first compound 0.5 µM) of 0.812, a relative viability (NCI-H2347; first compound 0.005 µM) of 0.485 and a relative viability (NCI-H2347; first compound 0.01581 µM) of 0.451. It also gave a relative viability (NCI-H2347; first compound 0.1581 µM) of 0.293, a relative viability (NCI-H2347; first compound 0.5 µM) of 0.401 and a relative viability (H3255; first compound 0.005 µM) of 0.629. For the same compound, the relative viability (H3255; first compound 0.01581 µM) was 0.643, the relative viability (H3255; first compound 0.05 µM) was 0.568 and the relative viability (H3255; first compound 0.1581 µM) was 0.67. The relative viability (H3255; first compound 0.5 µM) was 0.611, the relative viability (PC-3 [JPC-3]; first compound 0.005 µM) was 0.844 and the relative viability (PC-3 [JPC-3]; first compound 0.01581 µM) was 0.764. It also gave a relative viability (PC-3 [JPC-3]; first compound 0.05 µM) of 0.768, a relative viability (PC-3 [JPC-3]; first compound 0.1581 µM) of 0.809 and a relative viability (PC-3 [JPC-3]; first compound 0.5 µM) of 0.703. For the same compound, the relative viability (201T; first compound 0.005 µM) was 0.73, the relative viability (201T; first compound 0.01581 µM) was 0.805 and the relative viability (201T; first compound 0.05 µM) was 0.392. The relative viability (201T; first compound 0.1581 µM) was 0.707, the relative viability (201T; first compound 0.5 µM) was 0.647 and the relative viability (NCI-H727; first compound 0.005 µM) was 0.675. For the same compound, the relative viability (NCI-H727; first compound 0.01581 µM) was 0.692, the relative viability (NCI-H727; first compound 0.1581 µM) was 0.663 and the relative viability (NCI-H727; first compound 0.5 µM) was 0.728. For the same compound, the relative viability (NCI-H650; first compound 0.005 µM) was 0.525, the relative viability (NCI-H650; first compound 0.01581 µM) was 0.569 and the relative viability (NCI-H650; first compound 0.05 µM) was 0.525. The relative viability (NCI-H650; first compound 0.1581 µM) was 0.498, the relative viability (NCI-H650; first compound 0.5 µM) was 0.547 and the relative viability (NCI-H838; first compound 0.005 µM) was 0.373. For the same compound, the relative viability (NCI-H838; first compound 0.01581 µM) was 0.434, the relative viability (NCI-H838; first compound 0.05 µM) was 0.495 and the relative viability (NCI-H838; first compound 0.1581 µM) was 0.349. For the same compound, the relative viability (NCI-H838; first compound 0.5 µM) was 0.41, the relative viability (LK-2; first compound 0.005 µM) was 0.204 and the relative viability (LK-2; first compound 0.01581 µM) was 0.256. It also gave a relative viability (LK-2; first compound 0.05 µM) of 0.182, a relative viability (LK-2; first compound 0.1581 µM) of 0.174 and a relative viability (LK-2; first compound 0.5 µM) of 0.193. The relative viability (NCI-H1650; first compound 0.005 µM) was 0.601, the relative viability (NCI-H1650; first compound 0.01581 µM) was 1 and the relative viability (NCI-H1650; first compound 0.05 µM) was 0.698. The relative viability (NCI-H1650; first compound 0.1581 µM) was 0.526, the relative viability (NCI-H1650; first compound 0.5 µM) was 0.445 and the relative viability (LCLC-103H; first compound 0.005 µM) was 0.462. It also gave a relative viability (LCLC-103H; first compound 0.01581 µM) of 0.449, a relative viability (LCLC-103H; first compound 0.05 µM) of 0.399 and a relative viability (LCLC-103H; first compound 0.1581 µM) of 0.479. For the same compound, the relative viability (LCLC-103H; first compound 0.5 µM) was 0.533, the relative viability (LU99A; first compound 0.005 µM) was 0.305 and the relative viability (LU99A; first compound 0.01581 µM) was 0.345. It also gave a relative viability (LU99A; first compound 0.05 µM) of 0.248, a relative viability (LU99A; first compound 0.1581 µM) of 0.26 and a relative viability (LU99A; first compound 0.5 µM) of 0.312. For the same compound, the relative viability (LCLC-97TM1; first compound 0.005 µM) was 0.608, the relative viability (LCLC-97TM1; first compound 0.01581 µM) was 0.484 and the relative viability (LCLC-97TM1; first compound 0.05 µM) was 0.569. It also gave a relative viability (LCLC-97TM1; first compound 0.1581 µM) of 0.482, a relative viability (LCLC-97TM1; first compound 0.5 µM) of 0.601 and a relative viability (NCI-H23; first compound 0.005 µM) of 0.704. It also gave a relative viability (NCI-H23; first compound 0.01581 µM) of 0.691, a relative viability (NCI-H23; first compound 0.05 µM) of 0.529 and a relative viability (NCI-H23; first compound 0.1581 µM) of 0.582. The relative viability (NCI-H23; first compound 0.5 µM) was 0.63, the relative viability (NCI-H1944; first compound 0.005 µM) was 0.401 and the relative viability (NCI-H1944; first compound 0.01581 µM) was 0.495. It also gave a relative viability (NCI-H1944; first compound 0.05 µM) of 0.364, a relative viability (NCI-H1944; first compound 0.1581 µM) of 0.376 and a relative viability (NCI-H1944; first compound 0.5 µM) of 0.419. The relative viability (NCI-H460; first compound 0.005 µM) was 0.652, the relative viability (NCI-H460; first compound 0.01581 µM) was 0.702 and the relative viability (NCI-H460; first compound 0.05 µM) was 0.821. It also gave a relative viability (NCI-H460; first compound 0.1581 µM) of 0.652, a relative viability (NCI-H460; first compound 0.5 µM) of 0.671 and a relative viability (SW 900; first compound 0.005 µM) of 0.497. The relative viability (SW 900; first compound 0.01581 µM) was 0.681, the relative viability (SW 900; first compound 0.05 µM) was 0.534 and the relative viability (SW 900; first compound 0.1581 µM) was 0.395. The relative viability (SW 900; first compound 0.5 µM) was 0.546.
